Assay: Inhibition of Trypanosoma cruzi trans-sialidase

IC50: 600 µM
SMILES: CC(=O)N[C@H]1[C@H]([C@H](O)[C@H](O)CO)OC(Oc2ccc([N+](=O)[O-])cc2C(F)F)(C(=O)O)C[C@H]1O (stereo partly specified)

From ChEMBL document CHEMBL5108075, “Sialidase Inhibitors with Different Mechanisms” (J Med Chem, 2022)
